# Test results as given in ChEMBL document CHEMBL1149374, “Synthesis and biological evaluation of gem-diamine 1-N-iminosugars related to L-iduronic acid as inhibitors of heparan sulfate 2-O-sulfotransferase” (Bioorg Med Chem Lett, 2006).
# Target: T1, Heparan sulfate 2-O-sulfotransferase 1 (Cricetulus longicaudatus) (UniProt O08889)
# T1 sequence (whole entry): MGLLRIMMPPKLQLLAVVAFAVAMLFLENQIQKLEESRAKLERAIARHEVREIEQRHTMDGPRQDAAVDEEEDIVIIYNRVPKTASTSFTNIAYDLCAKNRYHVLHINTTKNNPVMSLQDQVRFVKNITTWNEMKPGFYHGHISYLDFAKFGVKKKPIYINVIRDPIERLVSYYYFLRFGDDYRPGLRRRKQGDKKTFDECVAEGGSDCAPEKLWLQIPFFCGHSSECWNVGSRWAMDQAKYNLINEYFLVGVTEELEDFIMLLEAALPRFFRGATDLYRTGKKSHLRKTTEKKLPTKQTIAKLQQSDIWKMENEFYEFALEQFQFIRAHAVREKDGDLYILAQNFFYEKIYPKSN
# Assay: Inhibition of sulfate transfer by HS 2-O-ST from CHO cells
# Type: functional, cell-based
# Details: concentration not given here
row,Compound,inhibition [%]
1,CCC(CC)C(=O)N1C[C@@H](C(=O)O)[C@H](N=C(N)N)[C@H](O)[C@H]1NC(C)=O,84
2,CC(=O)N[C@H]1NC[C@@H](C(=O)O)[C@H](N=C(N)N)[C@@H]1O,76
